Experimental data published in ChEMBL document CHEMBL1135099, “Synthesis and antinephritic activities of quinoline-3-carboxamides and related compounds” (2002).
The source made the active and inactive calls. The rule behind the calls is not given here.

Legend:
Mus musculus [1] = test: Percent inhibition of proteinuria in mice, perorally dose of 32 mg/kg; assay type: functional; conditions: route oral
Mus musculus [2] = test: Percent inhibition of proteinuria by compound dose of 100 mg/kg given perorally to murine in chronic graft-versus-host-disease test; assay type: functional; conditions: route oral
Mus musculus [3] = test: Percent inhibition of anti-DNA antibody was evaluated by ELISA technique as a measure of auto-immune disease after injection of compound dose of 0.1 mg/kg in MRL/1 mice; assay type: functional
Mus musculus [4] = test: Percent inhibition of anti-DNA antibody was evaluated by ELISA technique as a measure of auto-immune disease after injection of compound dose of 0.1 mg/kg in murine; assay type: functional
Mus musculus [5] = test: Percent inhibition of anti-DNA antibody was evaluated by ELISA technique as a measure of auto-immune disease after injection of compound dose of 0.32 mg/kg in MRL/1 mice; assay type: functional
Mus musculus [6] = test: Percent inhibition of anti-DNA antibody was evaluated by ELISA technique as a measure of auto-immune disease after injection of compound dose of 1 mg/kg in MRL/1 mice; assay type: functional
Mus musculus [7] = test: Percent inhibition of anti-DNA antibody was evaluated by ELISA technique as a measure of auto-immune disease after injection of compound dose of 1 mg/kg in murine; assay type: functional
Mus musculus [8] = test: Percent inhibition of anti-DNA antibody was evaluated by ELISA technique as a measure of auto-immune disease after injection of compound dose of 10 mg/kg in MRL/1 mice; assay type: functional
Mus musculus [9] = test: Percent inhibition of anti-DNA antibody was evaluated by ELISA technique as a measure of auto-immune disease after injection of compound dose of 10 mg/kg in murine; assay type: functional
Mus musculus [10] = test: Percent inhibition of anti-DNA antibody was evaluated by ELISA technique as a measure of auto-immune disease after injection of compound dose of 100 mg/kg in murine; assay type: functional
Mus musculus [11] = test: Percent inhibition of anti-DNA antibody was evaluated by ELISA technique as a measure of auto-immune disease after injection of compound dose of 3.2 mg/kg in MRL/1 mice; assay type: functional
Mus musculus [12] = test: Percent inhibition of proteinuria by compound dose of 0.32 mg/kg given perorally to MRL/1 mice; assay type: functional; conditions: route oral
Mus musculus [13] = test: Percent inhibition of proteinuria by compound dose of 1 mg/kg given perorally to MRL/1 mice; assay type: functional; conditions: route oral
Mus musculus [14] = test: Percent inhibition of proteinuria by compound dose of 1 mg/kg given perorally to murine in chronic graft-versus-host-disease test; assay type: functional; conditions: route oral
Mus musculus [15] = test: Percent inhibition of proteinuria by compound dose of 10 mg/kg given perorally to MRL/1 mice; assay type: functional; conditions: route oral
Mus musculus [16] = test: Percent inhibition of proteinuria by compound dose of 10 mg/kg given perorally to murine in chronic graft-versus-host-disease test; assay type: functional; conditions: route oral
Mus musculus [17] = test: Percent inhibition of proteinuria by compound dose of 3.2 mg/kg given perorally to MRL/1 mice; assay type: functional; conditions: route oral
Mus musculus [18] = test: Percent inhibition of proteinuria by compound dose of 0.1 mg/kg given perorally to MRL/1 mice; assay type: functional; conditions: route oral
Mus musculus [19] = test: Percent inhibition of proteinuria by compound dose of 0.1 mg/kg given perorally to murine in chronic graft-versus-host-disease test; assay type: functional; conditions: route oral
Mus musculus [20] = test: Percent inhibition of anti-DNA antibody was evaluated by ELISA technique as a measure of auto-immune disease after injection of compound dose of 100 mg/kg in MRL/1 mice; assay type: functional
Mus musculus [21] = test: Percent inhibition of anti-DNA antibody was evaluated by ELISA technique as a measure of auto-immune disease after injection of compound dose of 32 mg/kg in murine; assay type: functional
Mus musculus [22] = test: Percent inhibition of proteinuria by compound dose of 1 mg/kg given perorally to MRL/1 mice; Inactive; assay type: functional, organism-based; set-up: dose 1 mg/kg
Mus musculus [23] = test: Percent inhibition of proteinuria by compound dose of 100 mg/kg given perorally to MRL/1 mice; assay type: functional; conditions: route oral
Mus musculus [24] = test: Percent inhibition of proteinuria by compound dose of 3.2 mg/kg given perorally to MRL/1 mice; Inactive; assay type: functional, organism-based; set-up: dose 3.2 mg/kg
Mus musculus [25] = test: Percent inhibition of proteinuria by compound dose of 32 mg/kg given perorally to MRL/1 mice; assay type: functional; conditions: route oral
Mus musculus [26] = test: Percent inhibition of anti-DNA antibody was evaluated by ELISA technique as a measure of auto-immune disease after injection of compound dose of 32 mg/kg in MRL/1 mice; assay type: functional

In the case of `CN(C(=O)c1c(O)c2cc(Oc3ccccc3)ccc2n(C)c1=O)c1ccccc1`, the inhibition in vivo at 32 mg/kg (Mus musculus [1]) is reported as 26%.

`CSc1ccc2c(c1)c(O)c(C(=O)N(C)c1ccc(F)cc1)c(=O)n2C` gave an inhibition in vivo at 32 mg/kg (Mus musculus [1]) of 100%.

Molecule `CSc1ccc2c(c1)c(O)c(C(=O)C1(c3ccccc3)CC1)c(=O)n2C` has an inhibition in vivo at 100 mg/kg (Mus musculus [2]) of 29%.

Work on `CSc1ccc2nc(O)c(C(=O)N(C)c3ccccc3)c(O)c2c1` yielded an inhibition in vivo at 32 mg/kg (Mus musculus [1]) of 88%.

`CSc1ccc2c(c1)c(O)c(C(=O)N(C)c1cccc(C(F)(F)F)c1)c(=O)n2C` gave an inhibition in vivo at 32 mg/kg (Mus musculus [1]) of 99%.

In the case of `CSc1ccc2c(c1)c(O)c(C(=O)N(C)c1ccccc1)c(=O)n2C`, the inhibition in vivo at 0.1 mg/kg (Mus musculus [3]) is reported as 49%, the inhibition in vivo at 0.1 mg/kg (Mus musculus [4]) is reported as 41% and the inhibition in vivo at 0.32 mg/kg (Mus musculus [5]) is reported as 69%. For the same molecule, the inhibition in vivo at 1 mg/kg (Mus musculus [6]) was 76%, the inhibition in vivo at 1 mg/kg (Mus musculus [7]) was 50% and the inhibition in vivo at 10 mg/kg (Mus musculus [8]) was 93%. It also gave an inhibition in vivo at 10 mg/kg (Mus musculus [9]) of 88%, an inhibition in vivo at 100 mg/kg (Mus musculus [10]) of 94% and an inhibition in vivo at 3.2 mg/kg (Mus musculus [11]) of 88%. It also gave an inhibition in vivo at 0.32 mg/kg (Mus musculus [12]) of 100%, an inhibition in vivo at 1 mg/kg (Mus musculus [13]) of 100% and an inhibition in vivo at 1 mg/kg (Mus musculus [14]) of 82%. For the same molecule, the inhibition in vivo at 10 mg/kg (Mus musculus [15]) was 100%, the inhibition in vivo at 100 mg/kg (Mus musculus [2]) was 100% and the inhibition in vivo at 10 mg/kg (Mus musculus [16]) was 100%. For the same molecule, the inhibition in vivo at 3.2 mg/kg (Mus musculus [17]) was 100%, the inhibition in vivo at 32 mg/kg (Mus musculus [1]) was 100% and the inhibition in vivo at 0.1 mg/kg (Mus musculus [18]) was 100%. For the same molecule, the inhibition in vivo at 0.1 mg/kg (Mus musculus [19]) was 66%.

With `CSc1ccc2c(c1)c(O)c(C(=O)n1ccc3ccccc31)c(=O)n2C` the inhibition in vivo at 100 mg/kg (Mus musculus [2]) was 48%.

Molecule `CCn1c(=O)c(C(=O)N(C)c2ccccc2)c(O)c2cc(SC)ccc21` has an inhibition in vivo at 32 mg/kg (Mus musculus [1]) of 83%.

`CSc1ccc2c(c1)c(O)c(S(=O)(=O)N(C)c1ccccc1)c(=O)n2C` gave an inhibition in vivo at 32 mg/kg (Mus musculus [1]) of 53%.

Work on `CSc1ccc2c(c1)c(N)c(C(=O)N(C)c1ccccc1)c(=O)n2C` yielded an inhibition in vivo at 32 mg/kg (Mus musculus [1]) of 22%.

With `C[C@]12C=CC(=O)C=C1CCC1[C@@H]2[C@@H](O)C[C@@]2(C)[C@H]1CC[C@]2(O)C(=O)CO` (single isomer, unassigned) [PREDNISOLONE] the inhibition in vivo at 0.1 mg/kg (Mus musculus [4]) was 39%, the inhibition in vivo at 1 mg/kg (Mus musculus [7]) was 39% and the inhibition in vivo at 10 mg/kg (Mus musculus [9]) was 52%. The inhibition in vivo at 1 mg/kg (Mus musculus [14]) was 75%, the inhibition in vivo at 10 mg/kg (Mus musculus [16]) was 100% and the inhibition in vivo at 0.1 mg/kg (Mus musculus [19]) was 53%.

Work on `CNc1c(C(=O)N(C)c2ccccc2)c(=O)n(C)c2ccc(SC)cc12` yielded an inhibition in vivo at 32 mg/kg (Mus musculus [1]) of 83%.

`CSc1ccc2c(c1)c(O)c(C(=O)c1ccccc1)c(=O)n2C` gave an inhibition in vivo at 100 mg/kg (Mus musculus [2]) of 42%.

In the case of `CSc1ccc2c(c1)c(O)c(C(=O)N(C)C1CCCCC1)c(=O)n2C`, the inhibition in vivo at 32 mg/kg (Mus musculus [1]) is reported as 43%.

Molecule `CSc1ccc2c(c1)c(S)c(C(=O)N(C)c1ccccc1)c(=O)n2C` has an inhibition in vivo at 32 mg/kg (Mus musculus [1]) of 19%.

Molecule `CSc1ccc2c(c1)c(O)c(C(=O)N(C)c1ccc(C)cc1)c(=O)n2C` has an inhibition in vivo at 32 mg/kg (Mus musculus [1]) of 100%.

For `CSc1ccc2c(c1)c(O)c(S(=O)(=O)Cc1ccccc1)c(=O)n2C`, the inhibition in vivo at 100 mg/kg (Mus musculus [2]) was -49%.

`CN(C(=O)c1c(O)c2cc(S(C)(=O)=O)ccc2n(C)c1=O)c1ccccc1` was tested, and the inhibition in vivo at 32 mg/kg (Mus musculus [1]) was 0%.

`CCSc1ccc2c(c1)c(O)c(C(=O)N(C)c1ccccc1)c(=O)n2C` was tested, and the inhibition in vivo at 32 mg/kg (Mus musculus [1]) was 100%.

`CN(C(=O)c1c(O)c2cc([S+](C)[O-])ccc2n(C)c1=O)c1ccccc1` (stereo not drawn) showed an inhibition in vivo at 32 mg/kg (Mus musculus [1]) of 100%.

In the case of `CCN(C(=O)c1c(O)c2cc(SC)ccc2n(C)c1=O)c1ccccc1`, the inhibition in vivo at 32 mg/kg (Mus musculus [1]) is reported as 89%.

`CSc1ccc2c(c1)c(Cl)c(C(=O)N(C)c1ccccc1)c(=O)n2C` showed an inhibition in vivo at 32 mg/kg (Mus musculus [1]) of -1%.

`COc1ccc(N(C)C(=O)c2c(O)c3cc(SC)ccc3n(C)c2=O)cc1` was tested, and the inhibition in vivo at 32 mg/kg (Mus musculus [1]) was 100%.

For `CSc1ccc2c(c1)c(O)c(C(=O)N(C)c1ccccc1)c(=O)n2Cc1ccccc1`, the inhibition in vivo at 32 mg/kg (Mus musculus [1]) was -66%.

Molecule `CSc1ccc2c(c1)c(O)c(C(=O)Nc1ccccc1)c(=O)n2C` has an inhibition in vivo at 32 mg/kg (Mus musculus [1]) of 24%.

For `CSc1ccc2c(c1)c(O)c(C(=O)N(C)c1ccccn1)c(=O)n2C`, the inhibition in vivo at 32 mg/kg (Mus musculus [1]) was 65%.

Work on `COCn1c(=O)c(C(=O)N(C)c2ccccc2)c(O)c2cc(SC)ccc21` yielded an inhibition in vivo at 32 mg/kg (Mus musculus [1]) of 78%.

For `CN(C(=O)c1c(O)c2ccccc2n(C)c1=O)c1ccccc1` [ROQUINIMEX], the inhibition in vivo at 1 mg/kg (Mus musculus [6]) was 24%, the inhibition in vivo at 10 mg/kg (Mus musculus [8]) was 51% and the inhibition in vivo at 10 mg/kg (Mus musculus [9]) was -19%. The inhibition in vivo at 100 mg/kg (Mus musculus [20]) was 76%, the inhibition in vivo at 100 mg/kg (Mus musculus [10]) was 37% and the inhibition in vivo at 3.2 mg/kg (Mus musculus [11]) was 35%. The inhibition in vivo at 32 mg/kg (Mus musculus [21]) was 36%, the inhibition (Mus musculus [22]) was “inactive” and the inhibition in vivo at 10 mg/kg (Mus musculus [15]) was 60%. It also gave an inhibition in vivo at 100 mg/kg (Mus musculus [23]) of 100%, an inhibition in vivo at 100 mg/kg (Mus musculus [2]) of 98% and an inhibition in vivo at 10 mg/kg (Mus musculus [16]) of 9%. For the same molecule, the inhibition (Mus musculus [24]) was “inactive”, the inhibition in vivo at 32 mg/kg (Mus musculus [25]) was 100% and the inhibition in vivo at 32 mg/kg (Mus musculus [1]) was 86%. The inhibition in vivo at 32 mg/kg (Mus musculus [26]) was 52%.

In the case of `COc1c(C(=O)N(C)c2ccccc2)c(=O)n(C)c2ccc(SC)cc12`, the inhibition in vivo at 32 mg/kg (Mus musculus [1]) is reported as 94%.

`CN(C(=O)c1c(O)c2cc(Sc3ccccc3)ccc2n(C)c1=O)c1ccccc1` gave an inhibition in vivo at 32 mg/kg (Mus musculus [1]) of 100%.
